ChEMBL document CHEMBL3763064, “Discovery of silyl proline containing HCV NS5A inhibitors with pan-genotype activity: SAR development” (Bioorg Med Chem Lett, 2016)
pEC50: −log10 of the molar value.

Assays:
Assay type in all cases: functional, organism-based, Hepacivirus hominis
Hepatitis C virus [1] = test: Antiviral activity against HCV genotype 1a by replicon assay; conditions: subtype 1a
Hepatitis C virus [2] = test: Antiviral activity against HCV genotype 1b by replicon assay
Hepatitis C virus [3] = test: Antiviral activity against HCV genotype 1a expressing NS5A Y93H mutant by replicon assay; conditions: subtype 1a

Structure (SMILES)	pEC50 (Hepatitis C virus [1])	pEC50 (Hepatitis C virus [2])	pEC50 (Hepatitis C virus [3])
COC(=O)N[C@H](C(=O)N1C[C@H](O)C[C@H]1c1ncc(-c2ccc(-c3ccc4c(ccc5nc([C@@H]6C[Si](C)(C)CN6C(=O)[C@@H](NC(=O)OC)C(C)C)[nH]c54)c3)cc2)[nH]1)C(C)C	10.22	11.30	7.36
COC(=O)N[C@H](C(=O)N1C[C@H](F)C[C@H]1c1ncc(-c2ccc(-c3ccc4c(ccc5nc([C@@H]6C[Si](C)(C)CN6C(=O)[C@@H](NC(=O)OC)C(C)C)[nH]c54)c3)cc2)[nH]1)C(C)C	10.15	11.22	7.57
CCC(C)[C@H](NC(=O)OC)C(=O)N1CCC[C@H]1c1ncc(-c2ccc(-c3ccc4c(ccc5nc([C@@H]6C[Si](C)(C)CN6C(=O)[C@@H](NC(=O)OC)C(C)C)[nH]c54)c3)cc2)[nH]1 (some centres undefined)	9.82	–	6.19
COC(=O)N[C@H](C(=O)N1C[Si](C)(C)C[C@H]1c1nc2ccc3cc(-c4ccc(-c5cnc([C@@H]6C[C@H]7C[C@H]7N6C(=O)[C@@H](NC(=O)OC)C(C)C)[nH]5)cc4)ccc3c2[nH]1)C(C)C	–	–	7.52
COC(=O)N[C@H](C(=O)N1C[Si](C)(C)C[C@H]1c1ncc(-c2ccc(-c3ccc4c(ccc5nc([C@@H]6CCCN6C(=O)[C@@H](NC(=O)OC)C(C)C)[nH]c54)c3)cc2-c2cccs2)[nH]1)C(C)C	9.30	–	5.94
COC(=O)N[C@H](C(=O)N1CCC[C@H]1c1ncc(-c2ccc(-c3ccc4c(ccc5nc([C@@H]6C[Si](C)(C)CN6C(=O)[C@@H](NC(=O)OC)C(C)O)[nH]c54)c3)cc2)[nH]1)C(C)C (some centres undefined)	9.22	–	< 6.00
COC(=O)N[C@H](C(=O)N1C[Si](C)(C)C[C@H]1c1ncc(-c2ccc(-c3cc4c(ccc5nc([C@@H]6CCCN6C(=O)[C@@H](NC(=O)OC)C(C)C)[nH]c54)s3)cc2)[nH]1)C(C)C	< 9.00	11.22	5.63
COC(=O)N[C@H](C(=O)N1C[Si](C)(C)C[C@H]1c1ncc(-c2ccc(-c3ccc4c(ccc5nc([C@@H]6CCCN6C(=O)[C@@H](NC(=O)OC)C(C)C)[nH]c54)c3)cc2OC)[nH]1)C(C)C	9.57	–	6.30
COC(=O)N[C@H](C(=O)N1C[Si](C)(C)C[C@H]1c1ncc(-c2ccc(-c3ccc4c(ccc5nc([C@@H]6CCCN6C(=O)[C@@H](NC(=O)OC)C(C)C)[nH]c54)c3)nc2)[nH]1)C(C)C	10.40	10.85	6.73
COC(=O)N[C@H](C(=O)N1C[Si](C)(C)C[C@H]1c1nc2ccc3cc(-c4ccc(-c5cnc([C@@H]6[C@@H]7C[C@@H](C(F)C7F)N6C(=O)[C@@H](NC(=O)OC)C(C)C)[nH]5)cc4)ccc3c2[nH]1)C(C)C (some centres undefined)	10.40	11.70	6.69
CCC(C)[C@H](NC(=O)OC)C(=O)N1C[Si](C)(C)C[C@H]1c1nc2ccc3cc(-c4ccc(-c5cnc([C@@H]6CCCN6C(=O)[C@@H](NC(=O)OC)C(C)C)[nH]5)cc4)ccc3c2[nH]1 (some centres undefined)	10.10	–	6.55
COC(=O)N[C@H](C(=O)N1CCC[C@H]1c1ncc(-c2ccc(-c3ccc4c(ccc5nc([C@@H]6C[Si](C)(C)CN6C(=O)[C@@H](NC(=O)OC)C6CC6)[nH]c54)c3)cc2)[nH]1)C(C)C	10.30	–	7.06
COC(=O)N[C@H](C(=O)N1C[Si](C)(C)C[C@H]1c1ncc(-c2ccc(-c3ccc4c(ccc5nc([C@@H]6CCCN6C(=O)[C@@H](NC(=O)OC)C(C)C)[nH]c54)c3)cc2C2CC2)[nH]1)C(C)C	9.37	–	5.80
COC(=O)N[C@H](C(=O)N1CCS(=O)(=O)C[C@H]1c1ncc(-c2ccc(-c3ccc4c(ccc5nc([C@@H]6C[Si](C)(C)CN6C(=O)[C@@H](NC(=O)OC)C(C)C)[nH]c54)c3)cc2)[nH]1)C(C)C	9.70	11.00	6.42
COC(=O)N[C@H](C(=O)N1C[Si](C)(C)C[C@H]1c1ncc(-c2ccc(-c3ccc4c(ccc5nc([C@@H]6C[C@@H](F)CN6C(=O)[C@@H](NC(=O)OC)C(C)C)[nH]c54)c3)cc2)[nH]1)C(C)C	10.70	11.52	8.00
COC(=O)N[C@H](C(=O)N1C[Si](C)(C)C[C@H]1c1ncc(-c2ccc(-c3ccc4c(ccc5nc([C@@H]6CCCN6C(=O)[C@@H](NC(=O)OC)C(C)C)[nH]c54)c3)s2)[nH]1)C(C)C	9.85	11.40	6.04
COC(=O)N[C@H](C(=O)N1C[Si](C)(C)C[C@H]1c1nc2ccc3cc(-c4ccc(-c5cnc([C@@H]6CCCN6C(=O)[C@@H](NC(=O)OC)C(C)O)[nH]5)cc4)ccc3c2[nH]1)C(C)C (some centres undefined)	9.85	–	6.24
COC(=O)N[C@H](C(=O)N1CC(C)(C)C[C@H]1c1ncc(-c2ccc(-c3ccc4c(ccc5nc([C@@H]6C[Si](C)(C)CN6C(=O)[C@@H](NC(=O)OC)C(C)C)[nH]c54)c3)cc2)[nH]1)C(C)C	10.82	11.52	7.05
COC(=O)N[C@H](C(=O)N1CCC[C@H]1c1ncc(-c2ccc(-c3ccc4c(ccc5nc([C@@H]6C[Si](C)(C)CN6C(=O)[C@@H](NC(=O)OC)C(C)OC)[nH]c54)c3)cc2)[nH]1)C(C)C (some centres undefined)	10.52	–	6.56
COC(=O)N[C@H](C(=O)N1C[Si](C)(C)C[C@H]1c1ncc(-c2ccc(-c3ccc4c(ccc5nc([C@@H]6CCCN6C(=O)[C@@H](NC(=O)OC)C(C)C)[nH]c54)c3)cc2F)[nH]1)C(C)C	10.30	–	6.48
COC(=O)N[C@H](C(=O)N1CCC(F)(F)C[C@H]1c1ncc(-c2ccc(-c3ccc4c(ccc5nc([C@@H]6C[Si](C)(C)CN6C(=O)[C@@H](NC(=O)OC)C(C)C)[nH]c54)c3)cc2)[nH]1)C(C)C	10.00	–	6.14
COC(=O)N[C@H](C(=O)N1C[Si](C)(C)C[C@H]1c1nc2ccc3cc(-c4ccc(-c5cnc([C@@H]6CCCN6C(=O)[C@@H](NC(=O)OC)C6CC6)[nH]5)cc4)ccc3c2[nH]1)C(C)C	10.10	–	6.59
COC(=O)N[C@H](C(=O)N1C[Si](C)(C)C[C@H]1c1ncc(-c2ccc(-c3ccc4nc([C@@H]5CCCN5C(=O)[C@@H](NC(=O)OC)C(C)C)[nH]c4c3)cc2)[nH]1)C(C)C	< 9.00	11.40	5.00
COC(=O)N[C@H](C(=O)N1C[Si](C)(C)C[C@H]1c1nc2ccc3cc(-c4ccc(-c5cnc([C@@H]6CCCN6C(=O)[C@@H](NC(=O)OC)C6CCCC6)[nH]5)cc4)ccc3c2[nH]1)C(C)C	9.70	–	6.23
COC(=O)N[C@H](C(=O)N1CCC[C@H]1c1ncc(-c2ccc(-c3ccc4c(ccc5nc([C@@H]6C[Si](C)(C)CN6C(=O)[C@@H](NC(=O)OC)C6CCCC6)[nH]c54)c3)cc2)[nH]1)C(C)C	10.05	–	6.33
COC(=O)N[C@H](C(=O)N1C[Si](C)(C)C[C@H]1c1nc2ccc3cc(-c4ccc(-c5cnc([C@@H]6CCCN6C(=O)[C@@H](NC(=O)OC)C(C)OC)[nH]5)cc4)ccc3c2[nH]1)C(C)C (some centres undefined)	10.15	–	6.65
COC(=O)N[C@H](C(=O)N1C[Si](C)(C)C[C@H]1c1nc2ccc3cc(-c4ccc(-c5cnc([C@@H]6[C@H]7CC[C@H](C7)N6C(=O)[C@@H](NC(=O)OC)C(C)C)[nH]5)cc4)ccc3c2[nH]1)C(C)C	10.05	11.00	6.88
